The source of these data is patent US7282507B2, “Indole derivatives as selective androgen receptor modulators (SARMS)” (Janssen Pharmaceutica N.V., priority 2004, dated 2007).

The structures appear in SMILES notation.

The subject of the test is testosterone-enhanced ventral prostate and seminal vesicle weights. Put plainly: Ventral Prostate and Seminal Vesicle Weight in vivo Assay. Further: key: 'active' if the non weight adjusted prostate weight was ≦40 mg or the % Inhibition prostate weight, body weight adjusted was ≧40% @ 2 mg/day dosage; ID50's, if determined, of ≦15 mg/day also indicated an 'active' compound; listed herein as 'inactive' as they did not meet the specified criteria defined above. As to conditions: immature castrated male Sprague Dawley rats, once daily for five days, usually orally 40 mg/kg, with testosterone propionate 2 mg/kg s.c. Also on record: species or system rat. On the procedure: Immature (approximately 50 g) castrated male Sprague Dawley rats (Charles River) were treated once daily for five days with test compound (usually given orally at 40 mg/kg in a volume of 0.3 mL, in 30% cyclodextrin or 0.5% methylcellulose vehicle) and with testosterone propionate (given subcutaneously by injection at the nape of the neck at 2 mg/kg, in a volume of 0.1 mL in sesame oil). On the sixth day, the rats were euthanized by asphyxiation in carbon dioxide. Ventral prosatates and seminal vesicles were removed and their wet weights determined.
A test compound was said to be “active” if the non weight adjusted prostate weight was ≦40 mg or the % Inhibition prostate weight, body weight adjusted was ≧40% @ 2 mg/day dosage.

Take `CC(C)(O)c1cc2cc(Br)ccc2[nH]1` [Compound 294]: the “active / inactive: inhibition of testosterone-enhanced prostate weight” value (“active / inactive: inhibition” below) is “inactive”. Regarding `COCn1c(C(C)(O)C(F)(F)F)cc2cc(C#N)c(C(F)(F)F)cc21` (racemic) [Compound 332], the “active / inactive: inhibition” value is listed as “active”.

On to `CCS(=O)(=O)CC(C)(O)c1cc2cc(C#N)c(C(F)(F)F)cc2[nH]1` (racemic) [Compound 407], for which the “active / inactive: inhibition” value was “inactive”. Then `CCSCC(C)(O)c1[nH]c2cc(C(F)(F)F)c([N+](=O)[O-])cc2c1I` (single isomer, unassigned) [Compound 244], with “active”. As for `CC(C)(O)c1[nH]c2cc(C(F)(F)F)c(C#N)cc2c1C#N` [Compound 295], the “active / inactive: inhibition” value was “inactive”.

With `CC(C)(O)c1cc2cc([N+](=O)[O-])c(C(F)(F)F)cc2n1S(C)(=O)=O` [Compound 273], the “active / inactive: inhibition” value was “inactive”. Consider `CC(O)(COc1cccc([N+](=O)[O-])c1)c1cc2cc(C#N)c(C(F)(F)F)cc2[nH]1` (stereo not shown) [Compound 428, 2-[1-Hydroxy-1-methyl-2-(3-nitro-phenoxy)-ethyl]-6-trifluoromethyl-1H -indole-5-carbonitrile], for which the “active / inactive: inhibition” value was “inactive”. As for `CC[S+]([O-])CC(C)(O)c1[nH]c2cc(C(F)(F)F)c(C#N)cc2c1C` (mixture of isomers) [Compound 245], the “active / inactive: inhibition” value was “inactive”. As to `CCSCC(C)(O)c1[nH]c2cc(C(F)(F)F)c(C#N)cc2c1CC` (racemic) [Compound 344], the “active / inactive: inhibition” value is on record as “active”.

`CCSCC(C)(O)c1[nH]c2cc(C(F)(F)F)c(C#N)cc2c1C#C[Si](C)(C)C` (racemic) [Compound 325]: the “active / inactive: inhibition” value was “inactive”. As to `CCSCC(O)c1[nH]c2cc(C(F)(F)F)c(C#N)cc2c1I` (racemic) [Compound 411], the “active / inactive: inhibition” value is “inactive”. Consider `C#Cc1c(C(C)(O)CSCC)[nH]c2cc(C(F)(F)F)c(C#N)cc12` (racemic) [Compound 326], for which the “active / inactive: inhibition” value was “inactive”. As to `CSCn1c(C(C)(O)C(F)(F)F)cc2cc(C#N)c(C(F)(F)F)cc21` (racemic) [Compound 333], the “active / inactive: inhibition” value is reported as “active”. For the molecule `CCSCC(C)(O)c1cc2cc(Cl)ccc2[nH]1` (racemic) [Compound 353], the “active / inactive: inhibition” value is “inactive”. As for `CCSCC(C)(O)c1cc2cc(C#N)c(C)c(I)c2[nH]1` (racemic) [Compound 415], the “active / inactive: inhibition” value is “inactive”. Turning to `CCSCC(C)(O)c1cc2cc(C#N)c(C(F)(F)F)cc2n1CC(F)(F)F` (racemic) [Compound 237], the “active / inactive: inhibition” value is “active”. Regarding `CCS(=O)(=O)CC(O)c1cc2cc(C#N)c(C(F)(F)F)cc2[nH]1` (racemic) [Compound 412], the “active / inactive: inhibition” value is “inactive”. As for `CCSCC(O)(CC)c1cc2cc(Cl)c(C(F)(F)F)cc2[nH]1` (racemic) [Compound 181], the “active / inactive: inhibition” value was “active”. Then `CCSCC(C)(O)c1cc2cc(Cl)c(C#N)cc2[nH]1` (single isomer, unassigned) [Compound 228], with “inactive”; and `CCSCC(C)(O)c1cc2cc(C#N)c(OC)cc2[nH]1` (racemic) [Compound 445], with “inactive”. With `CCSCC(C)(O)c1cc2cc(N)c(C(F)(F)F)cc2[nH]1` (stereo not shown) [Compound 166], the “active / inactive: inhibition” value is “inactive”. With `CC(C)(O)c1cc2cc([N+](=O)[O-])c(C(F)(F)F)cc2[nH]1` [Compound 274], the “active / inactive: inhibition” value was “inactive”. Turning to `CC(C)(O)c1[nH]c2cc(C(F)(F)F)c(C#N)cc2c1Br` [Compound 288], the “active / inactive: inhibition” value is on record as “active”. In the case of `CC(C)(O)c1[nH]c2cc(C(F)(F)F)c([N+](=O)[O-])cc2c1C#N` [Compound 291], the “active / inactive: inhibition” value is on record as “active”. In the case of `CCSCC(C)(O)c1[nH]c2cc(C(F)(F)F)c(C#N)cc2c1I` (single isomer, unassigned) [Compound 349], the “active / inactive: inhibition” value is given as “active”. For `CCS(=O)(=O)CC(C)(O)c1cc2cc(Cl)c(C(F)(F)F)cc2[nH]1` (racemic) [Compound 404], the “active / inactive: inhibition” value was “active”. In the case of `CCSCC(C)(O)c1cc2cc(C#N)ccc2[nH]1` (racemic) [Compound 403], the “active / inactive: inhibition” value is “inactive”. For the molecule `CC(O)(c1cc2cc(C#N)c(C(F)(F)F)cc2[nH]1)C(F)(F)F` (stereo not shown) [Compound 329, 2-(2,2,2-Trifluoro-1-hydroxy-1-methyl-ethyl)-6-trifluoromethyl-1H-indole-5-carbonitrile], the “active / inactive: inhibition” value is “active”. Consider `CC(C)(O[Si](C)(C)C)c1cc2cc([N+](=O)[O-])c(C(F)(F)F)cc2n1S(C)(=O)=O` [Compound 269], for which the “active / inactive: inhibition” value was “inactive”. On to `N#Cc1cc2cc(C3(O)CCSC3)[nH]c2cc1C(F)(F)F` (racemic) [Compound 15], for which the “active / inactive: inhibition” value is “inactive”.

As for `CCc1c(C(C)(O)CS(=O)(=O)CC)[nH]c2cc(C(F)(F)F)c(C#N)cc12` (single isomer, unassigned) [Compound 354], the “active / inactive: inhibition” value is “active”.

Regarding `CSCC(O)c1cc2cc(C#N)c(C(F)(F)F)cc2[nH]1` (racemic) [Compound 408], the “active / inactive: inhibition” value was “inactive”.

Consider `CC(O)(CSCc1ccccn1)c1cc2cc([N+](=O)[O-])c(C(F)(F)F)cc2[nH]1` (racemic) [Compound 204], for which the “active / inactive: inhibition” value was “inactive”. For the molecule `CC(C)(O)c1[nH]c2cc(C(F)(F)F)c(C#N)cc2c1I` [Compound 278], the “active / inactive: inhibition” value is “active”.

Take `CCS(=O)(=O)CC(C)(O)c1cc2cc(C#N)c(C(F)(F)F)cc2[nH]1` (single isomer, unassigned) [Compound 397]: the “active / inactive: inhibition” value is “inactive”. In the case of `CCSCC(O)(c1cc2cc(C#N)c(C(F)(F)F)cc2[nH]1)C(F)(F)F` (racemic) [Compound 327], the “active / inactive: inhibition” value is reported as “active”. On to `CC(C)(O)c1[nH]c2cc(C(F)(F)F)c(Cl)cc2c1I` [Compound 279], for which the “active / inactive: inhibition” value was “inactive”. Take `CCSCC(C)(O)c1cc2cc(C#N)c(Cl)cc2[nH]1` (racemic) [Compound 224]: the “active / inactive: inhibition” value was “active”. The result for `CCSCC(C)(O)c1[nH]c2cc(C(F)(F)F)c([N+](=O)[O-])cc2c1I` (single isomer, unassigned) [Compound 241] reads “inactive”; that for `CCSCC(C)(O)c1cc2cc(C#N)c(C(F)(F)F)cc2n1COC` (racemic) [Compound 322], “inactive”; that for `CC(C)(O)c1cc2cc(Cl)c(C(F)(F)F)cc2[nH]1` [Compound 285], “inactive”. The result for `CC(C)(O)c1[nH]c2cc(C(F)(F)F)c([N+](=O)[O-])cc2c1I` [Compound 276] reads “active”; that for `CC(O)(CS(=O)(=O)c1ccc(F)cc1)c1cc2cc(Cl)c(C(F)(F)F)cc2[nH]1` (stereo not shown) [Compound 85], “inactive”; that for `CC(C)(O)c1cc2cc(Cl)c(Cl)cc2[nH]1` [Compound 405], “inactive”.

For `CCSCC(C)(O)c1cc2cc(C#N)c(C(F)(F)F)cc2n1CC#N` (racemic) [Compound 323], the “active / inactive: inhibition” value was “inactive”. As to `CC(O)(c1[nH]c2cc(C(F)(F)F)c(C#N)cc2c1C#C[Si](C)(C)C)C(F)(F)F` (single isomer, unassigned) [Compound 347], the “active / inactive: inhibition” value was “active”. As for `CC(O)(C[S+]([O-])CC(F)(F)F)c1cc2cc([N+](=O)[O-])c(C(F)(F)F)cc2[nH]1` (mixture of isomers) [Compound 205], the “active / inactive: inhibition” value is on record as “active”. Take `CCSCC(C)(O)c1cc2nc(C#N)ccc2[nH]1` (racemic) [Compound 6]: the “active / inactive: inhibition” value was “inactive”. As to `CCSCC(C)(O)c1c(C)c2cc(C#N)c(C(F)(F)F)cc2n1C` (single isomer, unassigned) [Compound 318], the “active / inactive: inhibition” value is “inactive”. Regarding `CCSCC(C)(O)c1cc2cc(C)c(C(F)(F)F)cc2[nH]1` (racemic) [Compound 414], the “active / inactive: inhibition” value was “inactive”. The result for `C=Cc1c(C(C)(C)O)[nH]c2cc(C(F)(F)F)c([N+](=O)[O-])cc12` [Compound 281] reads “inactive”; that for `Cc1c(C(C)(C)O)[nH]c2cc(C(F)(F)F)c(C#N)cc12` [Compound 289], “active”.
